Reference: ChEMBL document CHEMBL1201862, “PubChem BioAssay data set” (2004)
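Step 1: Grow cells in 96-well plates. Step 2: Expose to compound for 48 hours at 5 concentrations. Step 3: Interpolate endpoints linearly; if unreached, use highest concentration. GI50 = concentration required for 50% inhibition of growth.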 Activity calls are given as the source filed them. No stated cut-off is given here; in the data, active = GI50 up to about 1.1 µM and inactive = higher.

Key:
Assay in all cases: NCI tumour cell line growth inhibition, 48 h
[1] = system: A549
[2] = system: CAKI-1
[3] = system: COLO 205
[4] = system: DU-145
[5] = system: HL-60
[6] = system: K562
[7] = system: LOX IMVI
[8] = system: MCF7
[9] = system: MDA-MB-435
[10] = system: NCI-H460
[11] = system: NCI-H522
[12] = system: NCI/ADR-RES
[13] = system: OVCAR-4
[14] = system: SF-295
[15] = system: SK-MEL-2
[16] = system: SNB-19
[17] = system: SNB-75
[18] = system: SW-620
[19] = system: UACC-257
[20] = system: UACC-62

SMILES	GI50 [1]	GI50 [2]	GI50 [3]	GI50 [4]	GI50 [5]	GI50 [6]	GI50 [7]	GI50 [8]	GI50 [9]	GI50 [10]	GI50 [11]	GI50 [12]	GI50 [13]	GI50 [14]	GI50 [15]	GI50 [16]	GI50 [17]	GI50 [18]	GI50 [19]	GI50 [20]
O=[N+]([O-])c1oc2ccc3ccccc3c2c1CCO	1.9 µM (inactive)	2.25 µM (inactive)	0.346 µM (active)	3.51 µM (inactive)	1.74 µM (inactive)	1.96 µM (inactive)	2.14 µM (inactive)	3.22 µM (inactive)	1.53 µM (inactive)	0.0479 µM (active)	1.63 µM (inactive)	4.79 µM (inactive)	3.18 µM (inactive)	1.57 µM (inactive)	1.85 µM (inactive)	7.24 µM (inactive)	4.41 µM (inactive)	4.08 µM (inactive)	1.94 µM (inactive)	2.87 µM (inactive)
NC(=O)c1cc2cc(Cl)cc(Cl)c2o/c1=N\c1ccc(F)cc1	19.3 µM (inactive)	18.1 µM (inactive)	17.5 µM (inactive)	19 µM (inactive)	64.1 µM (inactive)	7.11 µM (inactive)	27.6 µM (inactive)	19.8 µM (inactive)	20 µM (inactive)	17.1 µM (inactive)	17.7 µM (inactive)	16 µM (inactive)	23.8 µM (inactive)	18.5 µM (inactive)	16.3 µM (inactive)	16.9 µM (inactive)	14.8 µM (inactive)	30.3 µM (inactive)	19.5 µM (inactive)	23.3 µM (inactive)
COc1ccc(-c2cc(-c3ccco3)c(C#N)c(=S)n2C2OC(COC(C)=O)C(OC(C)=O)C(OC(C)=O)C2OC(C)=O)cc1 (stereo unspecified)	5.9 µM (inactive)	3.98 µM (inactive)	4.36 µM (inactive)	7.94 µM (inactive)	3.98 µM (inactive)	2.43 µM (inactive)	3.64 µM (inactive)	23.6 µM (inactive)	7.71 µM (inactive)	5.11 µM (inactive)	4.56 µM (inactive)	12.7 µM (inactive)	2.54 µM (inactive)	1.96 µM (inactive)		5.66 µM (inactive)	5.85 µM (inactive)	6.19 µM (inactive)		3.72 µM (inactive)
O=C1C(O)=C(C(CCc2ccccc2)C2=C(O)C(=O)c3ccccc3C2=O)C(=O)c2ccccc21	33 µM (inactive)	> 100 µM (inactive)	28.4 µM (inactive)	8.55 µM (inactive)	1.1 µM (active)		5.26 µM (inactive)	40.2 µM (inactive)	13.9 µM (inactive)	3.61 µM (inactive)	23.8 µM (inactive)	> 100 µM (inactive)	67.9 µM (inactive)	6.11 µM (inactive)	35.5 µM (inactive)	> 100 µM (inactive)	45.8 µM (inactive)	47.5 µM (inactive)	13.4 µM (inactive)	13.7 µM (inactive)
C[C@@H]1CCC2[C@@H](C)[C@@H](OCCO[C@H]3OC4O[C@@]5(C)CCC6[C@H](C)CCC([C@H]3C)[C@@]46OO5)OC3O[C@@]4(C)CCC1[C@]32OO4 (stereo partly specified)	0.0634 µM (active)	0.0652 µM (active)	0.0514 µM (active)	0.171 µM (active)	0.0583 µM (active)	0.0212 µM (active)	0.0565 µM (active)	0.0312 µM (active)	0.239 µM (active)	0.151 µM (active)	0.0689 µM (active)	0.241 µM (active)	0.0361 µM (active)	0.405 µM (active)	0.292 µM (active)		0.546 µM (active)	0.0537 µM (active)	0.39 µM (active)	0.279 µM (active)
